“Also recorded” adds a separate entry of the source. Where two headings read alike, the source gives them in different places.

The source of these data is patent US20250339454A1, “COMPOSITIONS AND METHODS FOR THE PREVENTION OF LOSS OF ORGAN FUNCTION ASSOCIATED WITH CHRONIC ORGAN DISEASE” (Revelation Biosciences, Inc., priority 2023, published 2025).

This assay concerns rat UUO model of acute kidney injury and chronic kidney disease. It is filed as in vivo. The text has this:
Composite data represents the average of 3 anatomically distinct depths (10 images/depth/rat/group=˜60-65% of renal cortical area).

The mark [1] stands for this setting: rat serum, Day 7 post UUO, all groups, dose dependent, relative to the positive control group.

Regarding `Cc1cccc(-c2[nH]c(C(C)(C)C)nc2-c2ccc3nccnc3c2)n1` [SB-525334, reference compound], for the setting “reference compound, dose not given”, the “UUO-induced increases in renal cortical CVF” value (“UUO-induced increases” below) was “attenuated”.

For the molecule “phosphorylated hexaacyl disaccharide [REVTx-300]”, the “IL-6 (marker of inflammation)” value (UUO model) is listed as “no increase”. For the same molecule, the “fibrosis (collagen volume fraction, total collagen deposition via PicoSirius Red)” value (daily administration, dose dependent, relative to the positive control group) is “significant reduction; also recorded: Dose-dependent reduction”. For the setting “dosed at 0.3 mg/kg”, the “UUO-induced increases” value is recorded as “attenuated”. Also, the “UUO-induced increases” value (dosed at 0.9 mg/kg) was “attenuated”. Where the note is “rat serum, Day 7 post UUO”, the “IL-1β (marker of inflammation)” value was “relatively minor increase” and the “IL-18 (marker of inflammation)” value is “relatively minor increase”. Moreover, under setting [1], the “circulating anti-inflammatory interleukin-10 (IL-10)” value is “significantly increased”, the circulating hepcidin result is given as “significantly increased” and the “circulating neutrophil gelatinase-associated lipocalin (NGAL)” value is reported as “significantly increased”. Besides, the “circulating transforming growth factor-β (TGF-β)” value (rat serum, Day 7 post UUO, daily administration, dose dependent, relative to the positive control group) is “significant reduction”.
